Reference: PubChem BioAssay (NCI)
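Assay format: 96-well plates, 48-hour exposure. TGI is the concentration that stops growth completely.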

Key:
Experiment in all cases: NCI anticancer screen, dose series, 48 h
[1] = test system: K-562 leukemia
[2] = test system: TK-10 renal
[3] = test system: MDA-N
[4] = test system: SK-MEL-2 melanoma
[5] = test system: OVCAR-3 ovarian
[6] = test system: HT29 colon
[7] = test system: SNB-19 CNS
[8] = test system: HCC-2998 colon
[9] = test system: HL-60(TB) leukemia
[10] = test system: SN12C renal
[11] = test system: NCI/ADR-RES ovarian
[12] = test system: RPMI-8226 leukemia
[13] = test system: OVCAR-5 ovarian
[14] = test system: HOP-62 NSCLC
[15] = test system: SK-OV-3 ovarian
[16] = test system: RXF 393 renal
[17] = test system: HOP-92 NSCLC
[18] = test system: OVCAR-4 ovarian
[19] = test system: EKVX NSCLC
[20] = test system: LOX IMVI melanoma
[21] = test system: KM12 colon
[22] = test system: SF-295 CNS
[23] = test system: PC-3 prostate
[24] = test system: BT-549 breast
[25] = test system: HCT-116 colon
[26] = test system: M14 melanoma
[27] = test system: MCF7 breast
[28] = test system: UACC-62 melanoma
[29] = test system: UO-31 renal
[30] = test system: NCI-H460 lung
[31] = test system: A498 renal
[32] = test system: CAKI-1 renal
[33] = test system: MDA-MB-231 breast
[34] = test system: T-47D breast
[35] = test system: OVCAR-8 ovarian
[36] = test system: ACHN renal
[37] = test system: MALME-3M melanoma
[38] = test system: IGROV1 ovarian
[39] = test system: NCI-H23 lung
[40] = test system: SW-620 colon
[41] = test system: A549 NSCLC
[42] = test system: SF-268 CNS
[43] = test system: HCT-15 colon
[44] = test system: U251 CNS
[45] = test system: CCRF-CEM leukemia
[46] = test system: SNB-75 CNS
[47] = test system: SK-MEL-5 melanoma
[48] = test system: UACC-257 melanoma
[49] = test system: NCI-H522 lung
[50] = test system: MOLT-4 leukemia
[51] = test system: SK-MEL-28 melanoma
[52] = test system: MDA-MB-435
[53] = test system: COLO 205 colon
[54] = test system: HS 578T breast
[55] = test system: SF-539 CNS
[56] = test system: DU-145 prostate
[57] = test system: SR leukemia
[58] = test system: NCI-H226 lung
[59] = test system: 786-0 renal

`CCCCC(CC)C(=O)Oc1ccc(C(=O)c2ccccc2)c(O)c1` (stereo not drawn) was tested, and the TGI [1] was > 100 µM, the TGI [2] was > 100 µM and the TGI [3] was > 100 µM. For the same molecule, the TGI [4] was > 100 µM, the TGI [5] was > 100 µM and the TGI [6] was > 100 µM. For the same molecule, the TGI [7] was > 100 µM, the TGI [8] was > 100 µM and the TGI [9] was > 100 µM. For the same molecule, the TGI [10] was > 100 µM, the TGI [11] was > 100 µM and the TGI [12] was > 100 µM. The TGI [13] was > 100 µM, the TGI [14] was > 100 µM and the TGI [15] was > 100 µM. For the same molecule, the TGI [16] was > 100 µM, the TGI [17] was 59.4 µM and the TGI [18] was > 100 µM. For the same molecule, the TGI [19] was > 100 µM, the TGI [20] was > 100 µM and the TGI [21] was > 100 µM. The TGI [22] was > 100 µM, the TGI [23] was > 100 µM and the TGI [24] was > 100 µM. The TGI [25] was > 100 µM, the TGI [26] was > 100 µM and the TGI [27] was > 100 µM. The TGI [28] was > 100 µM, the TGI [29] was > 100 µM and the TGI [30] was > 100 µM. The TGI [31] was > 100 µM, the TGI [32] was > 100 µM and the TGI [33] was > 100 µM. The TGI [34] was > 100 µM, the TGI [35] was > 100 µM and the TGI [36] was > 100 µM. For the same molecule, the TGI [37] was > 100 µM, the TGI [38] was > 100 µM and the TGI [39] was > 100 µM. For the same molecule, the TGI [40] was > 100 µM, the TGI [41] was > 100 µM and the TGI [42] was > 100 µM. The TGI [43] was > 100 µM, the TGI [44] was > 100 µM and the TGI [45] was > 100 µM. For the same molecule, the TGI [46] was 74.3 µM, the TGI [47] was > 100 µM and the TGI [48] was > 100 µM. For the same molecule, the TGI [49] was 98.2 µM, the TGI [50] was > 100 µM and the TGI [51] was > 100 µM. For the same molecule, the TGI [52] was > 100 µM, the TGI [53] was > 100 µM and the TGI [54] was 64.9 µM. For the same molecule, the TGI [55] was > 100 µM and the TGI [56] was > 100 µM.

In the case of `O=C1CCc2cc(Br)ccc2O1`, the TGI [1] was > 100 µM, the TGI [2] was > 100 µM and the TGI [3] was > 100 µM. The TGI [4] was > 100 µM, the TGI [5] was > 100 µM and the TGI [6] was > 100 µM. For the same molecule, the TGI [7] was > 100 µM, the TGI [8] was > 100 µM and the TGI [9] was > 100 µM. For the same molecule, the TGI [10] was > 100 µM, the TGI [57] was > 100 µM and the TGI [12] was > 100 µM. The TGI [13] was > 100 µM, the TGI [14] was > 100 µM and the TGI [16] was 91.2 µM. For the same molecule, the TGI [17] was > 100 µM, the TGI [18] was > 100 µM and the TGI [19] was > 100 µM. The TGI [20] was > 100 µM, the TGI [22] was > 100 µM and the TGI [23] was > 100 µM. The TGI [24] was > 100 µM, the TGI [25] was > 100 µM and the TGI [58] was > 100 µM. For the same molecule, the TGI [26] was > 100 µM, the TGI [27] was > 100 µM and the TGI [28] was > 100 µM. The TGI [30] was > 100 µM, the TGI [31] was > 100 µM and the TGI [32] was > 100 µM. The TGI [34] was > 100 µM, the TGI [35] was > 100 µM and the TGI [59] was > 100 µM. The TGI [36] was > 100 µM, the TGI [37] was > 100 µM and the TGI [38] was > 100 µM. The TGI [39] was > 100 µM, the TGI [40] was > 100 µM and the TGI [41] was > 100 µM. The TGI [42] was > 100 µM, the TGI [43] was > 100 µM and the TGI [44] was > 100 µM. For the same molecule, the TGI [45] was > 100 µM, the TGI [46] was 92.8 µM and the TGI [47] was > 100 µM. For the same molecule, the TGI [48] was > 100 µM, the TGI [49] was > 100 µM and the TGI [50] was > 100 µM. The TGI [51] was > 100 µM, the TGI [52] was > 100 µM and the TGI [53] was > 100 µM. The TGI [54] was > 100 µM, the TGI [55] was > 100 µM and the TGI [56] was > 100 µM.

For `NC1=NC(c2ccc(Cl)cc2)=CC(c2cccc(Cl)c2)S1` (stereo not drawn), the TGI [1] was > 100 µM, the TGI [2] was 60.7 µM and the TGI [3] was 52.9 µM. The TGI [4] was 55.5 µM, the TGI [5] was > 100 µM and the TGI [6] was > 100 µM. The TGI [7] was 44.9 µM, the TGI [8] was 80.9 µM and the TGI [9] was > 100 µM. The TGI [10] was 85.2 µM, the TGI [11] was > 100 µM and the TGI [57] was 72.5 µM. The TGI [12] was 44 µM, the TGI [13] was > 100 µM and the TGI [14] was > 100 µM. The TGI [15] was > 100 µM, the TGI [16] was 77.1 µM and the TGI [17] was 60.1 µM. It also gave a TGI [18] of 60.5 µM, a TGI [19] of 96.9 µM and a TGI [20] of 99.1 µM. The TGI [21] was > 100 µM, the TGI [22] was > 100 µM and the TGI [23] was > 100 µM. For the same molecule, the TGI [24] was > 100 µM, the TGI [25] was > 100 µM and the TGI [58] was 71.9 µM. The TGI [26] was > 100 µM, the TGI [27] was > 100 µM and the TGI [28] was 51.4 µM. The TGI [29] was 84.6 µM, the TGI [30] was > 100 µM and the TGI [32] was 92.5 µM. The TGI [34] was > 100 µM, the TGI [35] was > 100 µM and the TGI [59] was > 100 µM. The TGI [36] was 59.9 µM, the TGI [37] was > 100 µM and the TGI [38] was > 100 µM. The TGI [39] was > 100 µM, the TGI [40] was > 100 µM and the TGI [41] was 87.2 µM. For the same molecule, the TGI [42] was > 100 µM, the TGI [43] was 33.2 µM and the TGI [44] was 55.5 µM. The TGI [45] was > 100 µM, the TGI [47] was 80.7 µM and the TGI [48] was 81.7 µM. For the same molecule, the TGI [49] was 55.8 µM, the TGI [50] was > 100 µM and the TGI [52] was 38.9 µM. The TGI [53] was 33.1 µM, the TGI [54] was 66.7 µM and the TGI [55] was > 100 µM. The TGI [56] was > 100 µM.

In the case of `NC(=O)C1=C(O)[C@@]2(O)C(=O)C3=C(O)c4c(O)cccc4CC3C[C@H]2CC1=O` (stereo partly drawn), the TGI [1] was > 61.5 µM, the TGI [2] was 43.7 µM and the TGI [3] was 41.2 µM. It also gave a TGI [4] of 4.72 µM, a TGI [5] of 14.7 µM and a TGI [6] of 7.34 µM. For the same molecule, the TGI [7] was 10.9 µM, the TGI [8] was 16.1 µM and the TGI [9] was 14.9 µM. For the same molecule, the TGI [10] was 14.5 µM, the TGI [11] was 13.7 µM and the TGI [12] was 6.12 µM. The TGI [13] was 12.3 µM, the TGI [14] was 14.1 µM and the TGI [15] was > 28.7 µM. The TGI [16] was 9.58 µM, the TGI [17] was 6.05 µM and the TGI [18] was > 85.1 µM. For the same molecule, the TGI [19] was 9.23 µM, the TGI [20] was 10.5 µM and the TGI [21] was 23.4 µM. It also gave a TGI [22] of 13.5 µM, a TGI [23] of 9.71 µM and a TGI [24] of 9.46 µM. For the same molecule, the TGI [25] was 12 µM, the TGI [58] was 8.43 µM and the TGI [26] was 13.2 µM. The TGI [27] was > 49.9 µM, the TGI [28] was 8.61 µM and the TGI [29] was 10.5 µM. The TGI [30] was 11.8 µM, the TGI [31] was 12.9 µM and the TGI [32] was 26.7 µM. It also gave a TGI [33] of 11.1 µM, a TGI [34] of 23.8 µM and a TGI [35] of 17.3 µM. It also gave a TGI [59] of 17.6 µM, a TGI [36] of 19.5 µM and a TGI [37] of 5.23 µM. The TGI [38] was 12.5 µM, the TGI [39] was 8.89 µM and the TGI [40] was 33.6 µM. The TGI [41] was 14.9 µM, the TGI [42] was 17.8 µM and the TGI [43] was 6.21 µM. For the same molecule, the TGI [44] was 12.8 µM, the TGI [45] was 10.4 µM and the TGI [46] was 8.35 µM. The TGI [47] was 3.67 µM, the TGI [48] was 28.6 µM and the TGI [49] was 7.72 µM. It also gave a TGI [50] of 10.6 µM, a TGI [51] of 22.8 µM and a TGI [52] of 40.2 µM. For the same molecule, the TGI [53] was 3.17 µM, the TGI [54] was 13.7 µM and the TGI [55] was 13.4 µM. It also gave a TGI [56] of 18.6 µM.
